Results taken from patent US20090069319A1, “IMIDAZOPYRIDINE ANALOGS AND THEIR USE AS AGONISTS OF THE WNT-BETA-CATENIN CELLULAR MESSAGING SYSTEM” (Wyeth, priority 2007, published 2009).

Assay: Functional Dkk1-LRP5-TCF-Luciferase Assay in U2OS Cells (table columns: A=MAX FOLD Induction/DMSO CONTROL; B=fold induction @ 2.0 uM; C=fold induction @ 20.0 uM)
Assay type: cell-based, Human
Conditions: Homo sapiens, U2OS; for fold induction at 2 µM: 2.0 uM compound; for fold induction at 20 µM: 20.0 uM compound
In short: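 U2OS cells co-transfected with 16×TCF-TK-firefly luciferase, TK-Renilla control, Wnt3a and Dkk1, then frozen; thawed cells (~5,000/well, ~5% FBS, phenol red-free RPMI) incubated ~20 h at 37° C. with compound (0.25% DMSO). Firefly luminescence (Bright-Glo) normalized to DMSO mean as fold induction.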

**Q.** With `Cc1nc2c(-c3ccc4ccccc4c3)ccnc2n1C1CNC1` [3-azetidin-3-yl-2-methyl-7-(2-naphthyl)-3H-imidazo[4,5-b]pyridine] as the compound, how does the fold induction at 2 µM read?
**A.** 1.16

**Q.** What about the fold induction at 20 µM of the same compound?
**A.** 0.76

**Q.** For `c1ccc2cc(-c3ccnc4c3ncn4C3CNC3)ccc2c1` [3-azetidin-3-yl-7-(2-naphthyl)-3H-imidazo[4,5-b]pyridine], which fold induction at 2 µM is on record?
**A.** 1.49

**Q.** And the fold induction at 20 µM?
**A.** 1.25

**Q.** With `c1ccc2cc(-c3cnc4c(c3)nc(-c3ccnc5ccccc35)n4C3CCNCC3)ccc2c1` [4-[6-(2-naphthyl)-3-piperidin-4-yl-3H-imidazo[4,5-b]pyridin-2-yl]quinoline] as the compound, how does the fold induction at 2 µM read?
**A.** 1.81

**Q.** With `c1ccc(N(c2ccccc2)c2ccc(-c3nc4c(-c5ccc6ccccc6c5)ccnc4n3C3CCNCC3)cc2)cc1` [4-[7-(2-naphthyl)-3-piperidin-4-yl-3H-imidazo[4,5-b]pyridin-2-yl]-N,N-diphenylaniline] as the compound, how does the fold induction at 2 µM read?
**A.** 1.89

**Q.** Which fold induction at 2 µM does the source give for `N#Cc1ccc(-c2nc3c(-c4ccc5ccccc5c4)ccnc3n2C2CCNCC2)cc1` [4-[7-(2-naphthyl)-3-piperidin-4-yl-3H-imidazo[4,5-b]pyridin-2-yl]benzonitrile] here?
**A.** 1.58

**Q.** For `Oc1ccc(-c2nc3c(-c4ccc5ccccc5c4)ccnc3n2C2CCNCC2)cc1` [4-[7-(2-naphthyl)-3-piperidin-4-yl-3H-imidazo[4,5-b]pyridin-2-yl]phenol], which fold induction at 2 µM is on record?
**A.** 1.3

**Q.** With `c1ccc2cc(-c3ccnc4c3nc(-c3ccnc5ccccc35)n4C3CCNCC3)ccc2c1` [4-[7-(2-naphthyl)-3-piperidin-4-yl-3H-imidazo[4,5-b]pyridin-2-yl]quinoline] as the compound, how does the fold induction at 2 µM read?
**A.** 1.07

**Q.** Which fold induction at 2 µM does the source give for `c1ccc2cc(-c3ccc4ncn(C5CCNCC5)c4n3)ccc2c1` [5-(2-naphthyl)-3-piperidin-4-yl-3H-imidazo[4,5-b]pyridine] here?
**A.** 0.32

**Q.** With `c1ccc2cc(-c3cnc4c(c3)nc(-c3cccc5ncccc35)n4C3CCNCC3)ccc2c1` [5-[6-(2-naphthyl)-3-piperidin-4-yl-3H-imidazo[4,5-b]pyridin-2-yl]quinoline] as the compound, how does the fold induction at 2 µM read?
**A.** 1.29

**Q.** With `O=c1[nH]cc(-c2nc3c(-c4ccc5ccccc5c4)ccnc3n2C2CCNCC2)c(=O)[nH]1` [5-[7-(2-naphthyl)-3-piperidin-4-yl-3H-imidazo[4,5-b]pyridin-2-yl]pyrimidine-2,4(1H,3H)-dione] as the compound, how does the fold induction at 2 µM read?
**A.** 1.94

**Q.** And the fold induction at 20 µM?
**A.** 1.91

**Q.** With `c1ccc2cc(-c3ccnc4c3nc(-c3cccc5ncccc35)n4C3CCNCC3)ccc2c1` [5-[7-(2-naphthyl)-3-piperidin-4-yl-3H-imidazo[4,5-b]pyridin-2-yl]quinoline] as the compound, how does the fold induction at 2 µM read?
**A.** 1.33

**Q.** For `O=[N+]([O-])c1ccccc1-c1nc2cc(-c3ccc4ccccc4c3)cnc2n1C1CCNCC1` [6-(2-naphthyl)-2-(2-nitrophenyl)-3-piperidin-4-yl-3H-imidazo[4,5-b]pyridine], which fold induction at 2 µM is on record?
**A.** 1.13

**Q.** With `O=[N+]([O-])c1cccc(-c2nc3cc(-c4ccc5ccccc5c4)cnc3n2C2CCNCC2)c1` [6-(2-naphthyl)-2-(3-nitrophenyl)-3-piperidin-4-yl-3H-imidazo[4,5-b]pyridine] as the compound, how does the fold induction at 2 µM read?
**A.** 1.3

**Q.** Which fold induction at 2 µM does the source give for `c1ccc(-c2nc3cc(-c4ccc5ccccc5c4)cnc3n2C2CCNCC2)cc1` [6-(2-naphthyl)-2-phenyl-3-piperidin-4-yl-3H-imidazo[4,5-b]pyridine] here?
**A.** 1.6

**Q.** Which fold induction at 2 µM does the source give for `c1csc(-c2nc3cc(-c4ccc5ccccc5c4)cnc3n2C2CCNCC2)c1` [6-(2-naphthyl)-3-piperidin-4-yl-2-(2-thienyl)-3H-imidazo[4,5-b]pyridine] here?
**A.** 1.04

**Q.** For `CCCc1nc2cc(-c3ccc4ccccc4c3)cnc2n1C1CCNCC1` [6-(2-naphthyl)-3-piperidin-4-yl-2-propyl-3H-imidazo[4,5-b]pyridine], which fold induction at 2 µM is on record?
**A.** 1.38

**Q.** What about the fold induction at 20 µM of the same compound?
**A.** 0.01

**Q.** What does the source list for `c1ccc(-c2nc3cc(-c4ccc5ccccc5c4)cnc3n2C2CCNCC2)nc1` [6-(2-naphthyl)-3-piperidin-4-yl-2-pyridin-2-yl-3H-imidazo[4,5-b]pyridine]?
**A.** fold induction at 2 µM: 1.6; fold induction at 20 µM: 0.005

**Q.** What does the source list for `c1ccc2cc(-c3cnc4c(c3)nc(-c3ccncc3)n4C3CCNCC3)ccc2c1` [6-(2-naphthyl)-3-piperidin-4-yl-2-pyridin-4-yl-3H-imidazo[4,5-b]pyridine]?
**A.** fold induction at 2 µM: 1.56; fold induction at 20 µM: 0.005

**Q.** Which fold induction at 2 µM does the source give for `c1ccc2cc(-c3cnc4c(c3)ncn4C3CCNCC3)ccc2c1` [6-(2-naphthyl)-3-piperidin-4-yl-3H-imidazo[4,5-b]pyridine] here?
**A.** 1.53

**Q.** Which results are given for `[O-][n+]1ccc(-c2nc3c(-c4ccc5ccccc5c4)ccnc3n2C2CCNCC2)cc1` [7-(2-naphthyl)-2-(1-oxidopyridin-4-yl)-3-piperidin-4-yl-3H-imidazo[4,5-b]pyridine]?
**A.** fold induction at 2 µM: 1.45; fold induction at 20 µM: 0.06

**Q.** Which fold induction at 2 µM does the source give for `O=[N+]([O-])c1ccccc1-c1nc2c(-c3ccc4ccccc4c3)ccnc2n1C1CCNCC1` [7-(2-naphthyl)-2-(2-nitrophenyl)-3-piperidin-4-yl-3H-imidazo[4,5-b]pyridine] here?
**A.** 1.14

**Q.** With `O=[N+]([O-])c1cccc(-c2nc3c(-c4ccc5ccccc5c4)ccnc3n2C2CCNCC2)c1` [7-(2-naphthyl)-2-(3-nitrophenyl)-3-piperidin-4-yl-3H-imidazo[4,5-b]pyridine] as the compound, how does the fold induction at 2 µM read?
**A.** 1.29

**Q.** With `c1ccc(Oc2cccc(-c3nc4c(-c5ccc6ccccc6c5)ccnc4n3C3CCNCC3)c2)cc1` [7-(2-naphthyl)-2-(3-phenoxyphenyl)-3-piperidin-4-yl-3H-imidazo[4,5-b]pyridine] as the compound, how does the fold induction at 2 µM read?
**A.** 1.4

**Q.** Which fold induction at 2 µM does the source give for `O=[N+]([O-])c1ccc(-c2nc3c(-c4ccc5ccccc5c4)ccnc3n2C2CCNCC2)cc1` [7-(2-naphthyl)-2-(4-nitrophenyl)-3-piperidin-4-yl-3H-imidazo[4,5-b]pyridine] here?
**A.** 1.42

**Q.** Which fold induction at 2 µM does the source give for `O=[N+]([O-])c1ccc(-c2nc3c(-c4ccc5ccccc5c4)ccnc3n2C2CCNCC2)s1` [7-(2-naphthyl)-2-(5-nitro-2-thienyl)-3-piperidin-4-yl-3H-imidazo[4,5-b]pyridine] here?
**A.** 1.83

**Q.** What about the fold induction at 20 µM of the same compound?
**A.** 0.01

**Q.** What does the source list for `c1ccc(-c2nc3c(-c4ccc5ccccc5c4)ccnc3n2C2CCNCC2)cc1` [7-(2-naphthyl)-2-phenyl-3-piperidin-4-yl-3H-imidazo[4,5-b]pyridine]?
**A.** fold induction at 2 µM: 1.23; fold induction at 20 µM: 0.05

**Q.** For `O=C(N1CCC(n2cnc3c(-c4ccc5ccccc5c4)ccnc32)CC1)C(F)(F)F` [7-(2-naphthyl)-3-[1-(trifluoroacetyl)piperidin-4-yl]-3H-imidazo[4,5-b]pyridine], which fold induction at 2 µM is on record?
**A.** 1.58

**Q.** What about the fold induction at 20 µM of the same compound?
**A.** 0.39

**Q.** Which fold induction at 2 µM does the source give for `O=c1[nH]c2c(-c3ccc4ccccc4c3)ccnc2n1C1CCNCC1` [7-(2-naphthyl)-3-piperidin-4-yl-1,3-dihydro-2H-imidazo[4,5-b]pyridin-2-one] here?
**A.** 1.29

**Q.** What about the fold induction at 20 µM of the same compound?
**A.** 0.04

**Q.** Which fold induction at 2 µM does the source give for `c1c[nH]c(-c2nc3c(-c4ccc5ccccc5c4)ccnc3n2C2CCNCC2)c1` [7-(2-naphthyl)-3-piperidin-4-yl-2-(1H-pyrrol-2-yl)-3H-imidazo[4,5-b]pyridine] here?
**A.** 1.25

**Q.** What does the source list for `c1csc(-c2nc3c(-c4ccc5ccccc5c4)ccnc3n2C2CCNCC2)c1` [7-(2-naphthyl)-3-piperidin-4-yl-2-(2-thienyl)-3H-imidazo[4,5-b]pyridine]?
**A.** fold induction at 2 µM: 1.22; fold induction at 20 µM: 0.04

**Q.** Which fold induction at 2 µM does the source give for `c1ccc2cc(-c3ccnc4c3nc(-c3ccsc3)n4C3CCNCC3)ccc2c1` [7-(2-naphthyl)-3-piperidin-4-yl-2-(3-thienyl)-3H-imidazo[4,5-b]pyridine] here?
**A.** 1.17

**Q.** And the fold induction at 20 µM?
**A.** 0.01

**Q.** For `C=Cc1cccc(-c2nc3c(-c4ccc5ccccc5c4)ccnc3n2C2CCNCC2)c1` [7-(2-naphthyl)-3-piperidin-4-yl-2-(3-vinylphenyl)-3H-imidazo[4,5-b]pyridine], which fold induction at 2 µM is on record?
**A.** 1.44

**Q.** With `FC(F)(F)Oc1ccccc1-c1nc2c(-c3ccc4ccccc4c3)ccnc2n1C1CCNCC1` [7-(2-naphthyl)-3-piperidin-4-yl-2-[2-(trifluoromethoxy)phenyl]-3H-imidazo[4,5-b]pyridine] as the compound, how does the fold induction at 2 µM read?
**A.** 1.88

**Q.** For `FC(F)(F)c1ccccc1-c1nc2c(-c3ccc4ccccc4c3)ccnc2n1C1CCNCC1` [7-(2-naphthyl)-3-piperidin-4-yl-2-[2-(trifluoromethyl)phenyl]-3H-imidazo[4,5-b]pyridine], which fold induction at 2 µM is on record?
**A.** 1.72

**Q.** With `FC(F)(F)Oc1cccc(-c2nc3c(-c4ccc5ccccc5c4)ccnc3n2C2CCNCC2)c1` [7-(2-naphthyl)-3-piperidin-4-yl-2-[3-(trifluoromethoxy)phenyl]-3H-imidazo[4,5-b]pyridine] as the compound, how does the fold induction at 2 µM read?
**A.** 1.52

**Q.** Which fold induction at 2 µM does the source give for `FC(F)(F)c1cccc(-c2nc3c(-c4ccc5ccccc5c4)ccnc3n2C2CCNCC2)c1` [7-(2-naphthyl)-3-piperidin-4-yl-2-[3-(trifluoromethyl)phenyl]-3H-imidazo[4,5-b]pyridine] here?
**A.** 1.54

**Q.** Which fold induction at 2 µM does the source give for `FC(F)(F)Oc1ccc(-c2nc3c(-c4ccc5ccccc5c4)ccnc3n2C2CCNCC2)cc1` [7-(2-naphthyl)-3-piperidin-4-yl-2-[4-(trifluoromethoxy)phenyl]-3H-imidazo[4,5-b]pyridine] here?
**A.** 1.51

**Q.** Which fold induction at 2 µM does the source give for `FC(F)(F)c1ccc(-c2nc3c(-c4ccc5ccccc5c4)ccnc3n2C2CCNCC2)cc1` [7-(2-naphthyl)-3-piperidin-4-yl-2-[4-(trifluoromethyl)phenyl]-3H-imidazo[4,5-b]pyridine] here?
**A.** 1.28

**Q.** For `CCCc1nc2c(-c3ccc4ccccc4c3)ccnc2n1C1CCNCC1` [7-(2-naphthyl)-3-piperidin-4-yl-2-propyl-3H-imidazo[4,5-b]pyridine], which fold induction at 2 µM is on record?
**A.** 1.93

**Q.** For `c1ccc(-c2nc3c(-c4ccc5ccccc5c4)ccnc3n2C2CCNCC2)nc1` [7-(2-naphthyl)-3-piperidin-4-yl-2-pyridin-2-yl-3H-imidazo[4,5-b]pyridine], which fold induction at 2 µM is on record?
**A.** 1.12

**Q.** What about the fold induction at 20 µM of the same compound?
**A.** 0.02

**Q.** With `c1cncc(-c2nc3c(-c4ccc5ccccc5c4)ccnc3n2C2CCNCC2)c1` [7-(2-naphthyl)-3-piperidin-4-yl-2-pyridin-3-yl-3H-imidazo[4,5-b]pyridine] as the compound, how does the fold induction at 2 µM read?
**A.** 1.21
